Measurements reported in patent US20260223861A1, “NATURAL PESTICIDAL COMPOSITIONS AND METHODS OF CONTROLLING ARTHROPODS” (TERRAMERA, INC., priority 2023, published 2026).
Several values for one entry are separate records, joined by “and”; a condition that tells them apart may be missing. Equal values may be shown once.

System: German cockroaches
Test: Spraying compositions on German cockroaches, knock-down and mortality (dead incl. moribund) observed
Assay type: in vivo
Conditions: knocked-down and dead insects, concentrations w/w in water
Procedure: In the following in vitro examples, various compounds were combined and the resulting composition was tested for efficacy. Each composition was mixed using a magnetic stir bar at room temperature (21° C.), except as otherwise noted herein. […] Water-insoluble and/or -immiscible ingredients, such as wintergreen oil, geraniol, oleic acid, and Na oleate, were dissolved and mixed as a separate fraction (the water-insoluble fraction). The water-insoluble fraction was then mixed with the water-soluble fraction by gentle stirring. All tested compositions comprised the tested compounds in solution with water. Each composition was tested for efficacy by spraying the composition on German cockroaches and observing the number of knocked-down and dead (including moribund) insects twice, once at 5 minutes after spraying and once at 48 hours after spraying. Either such measure of knock-down and mortality can be important in certain contexts. For example, 5-minute knock-down and mortality can be important in consumer contexts, as efficacy is often assessed over a short interval in such contexts. Shorter intervals, such as 30 seconds or 1 minute, are also or alternatively sometimes used in such contexts. As another example, 48-hour knock-down and mortality can be important in agricultural or industrial contexts, as total reduction in pest pressure may be more readily assessed over longer periods in such contexts. […] Ingredients were also tested for efficacy on their own (in dilution in water to provide the same concentration of the ingredient as in the tested compositions) using the same testing procedure. An expected efficacy for each formulation was determined based on the ingredients' individual tested efficacies based on the Colby equation, as described in greater detail by Ferry, Nancy; Stanley, Bruce H.; and Armel, Gregory (2005). “DESIGN AND […] OF BIOLOGICAL ASSAYS OF MIXTURES,” Conference on Applied Statistics in Agriculture. https://doi.org/10.4148/2475-7772.1133. Compositions with efficacy greater than this expected efficacy were determined to show synergistic efficacy.

[1] = 5 minutes after spraying, sulfate
[2] = 48 hours after spraying, sulfate

SMILES: CCCCOC(=O)C(C)O (stereo not shown) [Butyl Lactate (10%), Butyl lactate]
- Observed Efficacy (5 minutes after spraying): 7%
- Observed Efficacy (48 hours after spraying): 7%

SMILES: CC(C)O [Isopropyl alcohol (5%), Isopropyl alcohol]
- Observed Efficacy (5 minutes after spraying): 0%
- Observed Efficacy (48 hours after spraying): 0%

SMILES: CCCCCCCCCCCCOS(=O)(=O)[O-].[Na+] [Sodium Lauryl Sulfate (10%), Sodium lauryl sulfate]
- Observed Efficacy (5 minutes after spraying, listed as Sodium lauryl sulfate (10%), sulfate): 0%
- Observed Efficacy [1]: 0%
- Observed Efficacy (48 hours after spraying, listed as Sodium lauryl sulfate (10%), sulfate): 0%
- Observed Efficacy [2]: 0%

SMILES: CCCCCCCCCCCCOS(=O)(=O)[O-].[Na+] [Sodium Lauryl Sulfate (2.5%), Sodium lauryl sulfate]
- Observed Efficacy [1]: 0%
- Observed Efficacy [2]: 0%

SMILES: CC(C)O [Isopropyl alcohol (10%), Isopropyl alcohol]
- Observed Efficacy (5 minutes after spraying): 0%
- Observed Efficacy (48 hours after spraying): 0%

SMILES: CCCCOC(=O)C(C)O (stereo not shown) [Butyl Lactate (20%), Butyl lactate]
- Observed Efficacy (5 minutes after spraying): 13%
- Observed Efficacy (48 hours after spraying): 13%

SMILES: CCCCCCCC/C=C\CCCCCCCC(=O)O [Oleic Acid (20%), Oleic acid]
- Observed Efficacy (5 minutes after spraying): 5% and 0%
- Observed Efficacy (48 hours after spraying): 5% and 0%

SMILES: CCCCCCCC/C=C\CCCCCCCC(=O)OCC(O)CO (stereo not shown) [Glycerol Monooleate (1.25%), Glycerol monooleate]
- Observed Efficacy (5 minutes after spraying): 0%
- Observed Efficacy (48 hours after spraying): 0%

SMILES: [Cl-].[Na+] [NaCl (2.5%), NaCl]
- Observed Efficacy (5 minutes after spraying): 0%
- Observed Efficacy (48 hours after spraying): 0%

SMILES: CCCCCCCCCCCCOS(=O)(=O)[O-].[Na+] [Sodium Lauryl Sulfate (1.25%), Sodium lauryl sulfate]
- Observed Efficacy [1]: 0%
- Observed Efficacy [2]: 0%

SMILES: CCCCCCCCCCCCOS(=O)(=O)[O-].[Na+] [Sodium Lauryl Sulfate (5%), Sodium lauryl sulfate]
- Observed Efficacy (5 minutes after spraying, listed as Sodium lauryl sulfate (5%), sulfate): 7%
- Observed Efficacy [1]: 7%
- Observed Efficacy (48 hours after spraying, listed as Sodium lauryl sulfate (5%), sulfate): 7%
- Observed Efficacy [2]: 7%

SMILES: CCCCOC(=O)C(C)O (stereo not shown) [Butyl Lactate (5%), Butyl lactate]
- Observed Efficacy (5 minutes after spraying): 13%
- Observed Efficacy (48 hours after spraying): 13%

SMILES: CC(C)=CCC/C(C)=C/CO [Geraniol (10%), Geraniol]
- Observed Efficacy (5 minutes after spraying): 27%
- Observed Efficacy (48 hours after spraying): 27%

SMILES: CC(C)=CCC/C(C)=C/CO [Geraniol (20%), Geraniol]
- Observed Efficacy (5 minutes after spraying): 5%
- Observed Efficacy (48 hours after spraying): 5%

SMILES: CCCCOC(=O)C(C)O (stereo not shown) [Butyl Lactate (2.5%), Butyl lactate]
- Observed Efficacy (5 minutes after spraying): 0%
- Observed Efficacy (48 hours after spraying): 0%

SMILES: CC(C)=CCC/C(C)=C/CO [Geraniol (5%), Geraniol]
- Observed Efficacy (5 minutes after spraying): 7%
- Observed Efficacy (48 hours after spraying): 7%

SMILES: CCCCCCCC/C=C\CCCCCCCC(=O)O [Oleic Acid (5%), Oleic acid]
- Observed Efficacy (5 minutes after spraying): 0%
- Observed Efficacy (48 hours after spraying): 0%

SMILES: CC(C)=CCC/C(C)=C/CO [Geraniol (2.5%), Geraniol]
- Observed Efficacy (5 minutes after spraying): 20%
- Observed Efficacy (48 hours after spraying): 20%
